{
  "source": "patent US12344584B2",
  "about": "“KCNQ potentiators” (Eli Lilly and Company, priority 2019, dated 2025)",
  "target": "T1, hKv7.2 and hKv7.3 (Kv7.2/7.3) (Homo sapiens, UniProt O43525+O43526)",
  "T1 construct": "host or cells: HEK293",
  "assay": "Modulation of Kv7.2/7.3 conductance, automated electrophysiology (IonWorks Barracuda, population patch clamp) in HEK293 cells",
  "assay_type": "cell-based",
  "set-up": "Voltage Shift ([…]V0.5), Mean: unit not given here",
  "protocol": "Modulation of Kv7.2/7.3 Conductance by Kv7 Potentiators in a Mammalian Expression System\nThe potency and efficacy of Kv7 potentiators is assessed by automated electrophysiology on the IonWorks Barracuda (Molecular Devices) platform using the population patch clamp mode of the instrument.\nCell Culture: HEK293 cells stably expressing hKv7.2 (under tetracycline induction) and hKv7.3 (Catalog #CT6147, Charles River) are used for these studies. Cells are maintained in a Dulbecco's modified Eagle's medium/nutrient mixture Ham's F-12 (Sigma-Aldrich) supplemented with 5% tetracycline-screened fetal bovine serum (Sigma-Aldrich), 15 mM HEPES, 500 μg/mL G418, 100 U/mL penicillin, 100 μg/mL streptomycin, […] L-glutamine, 100 μg/mL zeocin, and 5 μg/mL blasticidin. Expression of hKv7.2 is induced by addition of 1 μg/mL doxycycline 24 h prior to recordings.\nCells are cultured in Corning T-150 flasks to a confluence of 85%-95%. At the start of an experiment, cells are washed once with D-PBS without calcium and magnesium and then dissociated by incubating in 3 ml of 0.25% trypsin for 8 min at 37° C. Cells ware resuspended in media, triturated gently, and centrifuged for 4 min at 1,000 rpm. Cells are resuspended in external solution to a final concentration of 2.5-3.5M cells/mL.\nSolutions: External solution w is composed of (in mM): 140 NaCl, 5 KCl, 2 CaCl2, 1 MgCl2, 10 HEPES, 10 Glucose, pH 7.4. Internal solution is composed of (in mM): 90 K-gluconate, 40 KCl, 3.2 EGTA, 3.2 MgCl2, 5 HEPES, pH 7.25. The membrane perforating agent amphotericin B is prepared daily as a 27 mg/mL stock solution in DMSO and then added to the internal solution to a final concentration of 0.1 mg/mL. Test article dilutions are prepared in 384-well plates from 10 mM DMSO stock solutions and diluted using acoustic dispensing (Labcyte ECHO®), such that final DMSO concentrations are 0.1%.\nElectrophysiological Recordings: Resuspended cells are placed on the IONWORKS® BARRACUDA™ (IWB) instrument, external solution is added to a 384-well patch plate, and a hole test is performed to determine blocked wells and offset voltages. Cells are then added to the patch plate (9 μL per well) by the instrument. Two seal tests are performed prior to introducing the perforating agent amphotericin in the internal solution and allowing approximately 8 min to obtain electrical access, which is verified by a third seal test. The command voltage protocol consists of a family of 1 sec voltages steps from −80 mV to +40 mV from a holding potential of −80 mV and is applied prior to (baseline) and 6 min after test article addition.\nData Analysis: Data are acquired and leak subtracted using IWB software. Current amplitudes during the last 10 msec of each voltage step are averaged and exported. Further analysis is performed using Microsoft Excel and GraphPad Prism. Current amplitude is converted to conductance (G) by the following formula: G=I/(V−Ek) where I=current, V=step potential, Ek=potassium reversal potential (−84 mV). Conductance in the presence of test article is normalized to the baseline conductance at +40 mV for the same well. Conductance-voltage (G−V) curves are fitted with the Boltzmann equation y=Bottom+(Top−Bottom)/(1+EXP((Vm−V0.5/k)).\nFitting a 4-parameter logistic equation to the data may be used to determine the potency (EC50) and efficacy (maximal shift) for each test compound.",
  "key": {"[1]": {"details": "4-parameter logistic fit of voltage shift data"}},
  "note": "pEC50: −log10 of the molar value.",
  "data": [
    {"smiles": "CC(C)(C)[C@H](O)CNC(=O)NCc1ccnc(OCC(F)(F)F)c1", "note": "[Example 1, 1-[(2S)-2-hydroxy-3,3-dimethyl-butyl]-3-[[2-(2,2,2-trifluoroethoxy)-4-pyridyl]methyl]urea]", "values": [
      {"measurement": "Voltage Shift ([…]V0.5), Mean", "setting": "0.0005 μM", "result": 2.6},
      {"measurement": "Voltage Shift ([…]V0.5), Mean", "setting": "0.0015 μM", "result": 2.0},
      {"measurement": "Voltage Shift ([…]V0.5), Mean", "setting": "0.005 μM", "result": 3.0},
      {"measurement": "Voltage Shift ([…]V0.5), Mean", "setting": "0.01 μM", "result": 1.6},
      {"measurement": "Voltage Shift ([…]V0.5), Mean", "setting": "0.04 μM", "result": 1.3},
      {"measurement": "Voltage Shift ([…]V0.5), Mean", "setting": "0.12 μM", "result": 0.0},
      {"measurement": "Voltage Shift ([…]V0.5), Mean", "setting": "0.37 μM", "result": "−3.5"},
      {"measurement": "Voltage Shift ([…]V0.5), Mean", "setting": "1.11 μM", "result": "−13.2"},
      {"measurement": "Voltage Shift ([…]V0.5), Mean", "setting": "3.33 μM", "result": "−28.0"},
      {"measurement": "Voltage Shift ([…]V0.5), Mean", "setting": "10 μM, difference from control in voltage at half-maximal conductance", "result": "−38.0"},
      {"measurement": "Maximal Shift (efficacy)", "setting": "[1]", "result": "−44"},
      {"measurement": "Slope", "setting": "[1]", "result": 1.2},
      {"measurement": "pEC50", "setting": "4-parameter logistic fit of voltage shift data, read-out: EC50 (potency of V0.5 shift)", "result": 5.70}
    ]}
  ]
}
